pKi: −log10 of the molar value. Counter-ions that a name gives are not always drawn.
What was measured:
mud puppy taste cells = experiment: Response of isolated taste cells to bitter-tasting compounds, intracellular calcium fluorescence; format: cell-based; conditions: for effect on taste cell response to denatonium benzoate: inhibitor mixed with denatonium benzoate; for effect on taste cell response to dextromethorphan: inhibitor mixed with dextromethorphan; for taste cell response to bitter tasting compound: bitter compound alone
Procedure: Taste cells are isolated from the mud puppy, a type of salamander (S. C. Kinnamon, et al, Chemical Senses 13: 355 - 366, 1988). Briefly, a fresh mud puppy tongue is incubated with collagenase, the non-gustatory epithelium is peeled off the surface, and individual taste buds are gently drawn into a micropipette using a dissecting microscope at 50X magnification. The taste buds are plated into small vessels, that are coated with Cell-Tak, containing culture media. The taste cells can remain viable up to 18 days and maintain normal functions (C. Ruiz, et al, Experimental Cell Biology of Taste and Olfaction, Current Techniques and Protocols, A. I. Spielman and J. G. Brand, eds., CRC Press, 1995, pp. 79 - 84). The taste cells are labeled intracellularly with a marker compound that fluoresces in a dose-dependent fashion to calcium ion concentration. Since an increase in the intracellular calcium ion concentration is one of the last steps in converging biochemical signal transduction pathways for bitterness, the fluorescent marker correlates with taste cell response to bitterness (D. Restrepo, et al, Experimental Cell Biology of Taste and Olfaction, Current Techniques and Protocols, A. I. Spielman and J. G. Brand, eds., CRC Press, 1995, pp. 387 - 398). Labeled taste cells are observed microscopically using image analysis software. Using a micropipette, taste cells are exposed to bitter-tasting compounds by adding the compounds in media near the taste cell. Cells that respond to the bitter-tasting compound show an increase in fluorescence intensity. Bitter inhibitors are tested by adding them to the test solution with the bitter-tasting compound. The response of individual taste cells to bitter-tasting compounds and to bitter-tasting compounds plus inhibitor are monitored by measuring the fluorescent intensity using a microscope. Images are stored electronically and image analysis software is used to analyze the data (D. Restrepo, et al, Biophysical Journal 64: 1961 - 1966, 1993).

alkaline phosphatase = alkaline phosphatase (Bos taurus, UniProt P19111); format: biochemical, bovine; conditions: PNPP substrate
alkaline phosphatase, sequence (P19111 20-506): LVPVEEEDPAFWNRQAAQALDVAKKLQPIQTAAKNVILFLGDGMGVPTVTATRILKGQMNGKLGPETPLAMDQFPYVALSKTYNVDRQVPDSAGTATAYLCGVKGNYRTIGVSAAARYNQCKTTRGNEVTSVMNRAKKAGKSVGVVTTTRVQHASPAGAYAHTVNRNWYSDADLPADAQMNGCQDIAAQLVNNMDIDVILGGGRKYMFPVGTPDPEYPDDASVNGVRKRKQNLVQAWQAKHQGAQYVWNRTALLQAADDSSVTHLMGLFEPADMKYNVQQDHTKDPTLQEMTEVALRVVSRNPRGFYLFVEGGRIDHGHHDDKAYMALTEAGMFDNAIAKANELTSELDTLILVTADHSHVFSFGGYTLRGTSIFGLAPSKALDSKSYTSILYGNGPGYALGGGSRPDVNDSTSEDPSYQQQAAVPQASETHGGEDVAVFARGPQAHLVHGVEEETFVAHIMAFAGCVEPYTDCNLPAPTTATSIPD
Procedure: Enzyme kinetics experiments are done using purified alkaline phosphatase from bovine intestine and the substrate para-nitrophenyl phosphate (PNPP). The formation of colored para-nitrophenol (PNP) from colorless PNPP is followed by measuring the color formation in the presence of inhibitor at several concentrations.
Specifically, enzyme reactions are done in a volume of 200 ul containing 12.5 mU/ml alkaline phosphatase, PNPP at concentrations between 0.5-200 mM, and an inhibitor at concentrations between 0-100 mM. […] Phosphoserine is the natural substrate for this enzyme. The final buffer solution is 0.9 M diethanolamine and 0.5 mM […], pH 9.8, mixed 3:1 (v:v) with water. Reactions are done in a 96-well microtiter plate. The enzyme reaction is initiated by the addition of the enzyme. Each reaction mixture is done in triplicate. The enzyme reaction is monitored by measuring the optical density (OD) at 405 nm, with a reference OD of 490 nm. The OD's are read every 30 seconds over a 15 minute period at room temperature. PNP concentration is determined based on a standard curve correlating OD405/490 vs. PNP concentration. […] The data is then transformed and plotted as the Kmapp / Vmax. vs. inhibitor concentration. From these plots the dissociation constant of the enzyme-inhibitor complex, Ki, is determined. The x-intercept on this plot equals (-Ki). […]

[1] = test system: Pig taste tissue tyrosine phosphatase; experiment: Protein tyrosine phosphatase activity of pig taste tissue homogenate, phosphotyrosine peptide substrates, ELISA; format: biochemical; conditions: for % Total Phosphatase Activity: pig taste tissue 615 ug/ml protein, 10°C for 20 min
Procedure: Taste tissue (circumvallate papillae) is dissected from fresh pig tongue and homogenized in buffer. Protein tyrosine phosphatase activity is measured using peptides containing phosphotyrosine as the substrate. Two substrates are used. […] The removal of phosphate from the phosphotyrosines is determined by measurement of phosphotyrosine concentration, using an ELISA, after reaction of the peptide substrate with pig taste tissue. The activity of purified tyrosine phosphatase is determined in each experiment as a control.
In this experiment, pig taste tissue and peptide substrate are combined in a buffer of 20 mM Tris, 0.1% beta-mercaptoethanol, and 1 mg/ml BSA, pH 7.0. A total volume of 100 ul in each well of a 96-well microtiter plate is used. […] The enzyme reaction is done at 10°C for 20 min. The reaction is stopped by the addition of 25 ul 400 uM sodium orthovanadate. […]
In another experiment using the same conditions as described above, the tyrosine dephosphorylation of peptide substrate 1 is measured after 1, 2, 3, 4, 5, 6, 7 and 8 minute reactions at room temperature with pig taste tissue (41 ug/ml protein) as the enzyme source.

[2] = test system: purified protein tyrosine phosphatase; experiment: Purified protein tyrosine phosphatase, dephosphorylation of phosphotyrosine-containing peptide substrates; format: biochemical; conditions: experiments not described
[3] = biological target: protein tyrosine phosphatase (Yersinia enterocolitica, UniProt P15273); experiment: Protein tyrosine phosphatase enzyme kinetics with PNPP substrate; format: biochemical; conditions: pH 7.5
protein tyrosine phosphatase, sequence (P15273 whole entry): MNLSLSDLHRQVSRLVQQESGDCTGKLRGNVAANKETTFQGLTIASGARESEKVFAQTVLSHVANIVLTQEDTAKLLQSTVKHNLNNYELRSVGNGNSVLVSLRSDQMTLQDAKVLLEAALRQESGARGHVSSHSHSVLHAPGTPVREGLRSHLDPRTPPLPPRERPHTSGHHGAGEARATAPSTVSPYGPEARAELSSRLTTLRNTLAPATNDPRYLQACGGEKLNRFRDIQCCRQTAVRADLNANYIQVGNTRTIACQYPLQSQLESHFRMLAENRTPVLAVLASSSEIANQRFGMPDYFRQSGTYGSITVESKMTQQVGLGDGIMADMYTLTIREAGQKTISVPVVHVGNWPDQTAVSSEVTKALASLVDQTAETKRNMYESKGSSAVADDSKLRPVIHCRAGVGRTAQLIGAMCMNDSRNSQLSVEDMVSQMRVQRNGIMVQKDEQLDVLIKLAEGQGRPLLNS
Procedure: Enzyme kinetics are done using purified protein tyrosine phosphatase from the bacteria, Yersinia enterocolitica, recombinant form, with PNPP as the substrate. The enzyme kinetics experiments are done similarly to the kinetics experiments for alkaline phosphatase and acid phosphatase described above.
Each final reaction mixture contains 20 mM Tris, 0.1 % beta-mercaptoethanol, and 0.1% bovine serum albumin at pH 7.5. The ionic strength of each reaction mixture is the same and is balanced by the addition of the appropriate amount of NaCl. Activity of this enzyme is extremely sensitive to ionic strength. Each reaction is begun with the addition of tyrosine phosphatase. The formation of PNP is monitored by measuring the OD405/490 at 30 second intervals over a 30 minute period. The enzyme velocity is linear over this time period under these conditions. The Ki values are calculated as described above for alkaline phosphatase (Table 2).

`C=C1[C@@H](O)[C@@H]2O[C@]3(CC[C@H](/C=C/[C@@H](C)[C@@H]4CC(C)=C[C@@]5(O[C@H](C[C@@](C)(O)C(=O)O)CC[C@H]5O)O4)O3)CC[C@H]2O[C@@H]1[C@@H](O)C[C@H](C)[C@H]1O[C@@]2(CCCCO2)CC[C@H]1C` [okadaic acid] was tested, and the “effect on taste cell response to denatonium benzoate” value (“effect … to denatonium benzoate” below) (mud puppy taste cells) was “has no effect on response” and the “effect on taste cell response to dextromethorphan” value (shortened to “effect … to dextromethorphan”) (mud puppy taste cells) was “has no effect on response”.

With `CC1CCC(C(C)C)C(OP(=O)(O)O)C1` (stereo not drawn) [MMP, menthylmonophosphate] the “type of inhibition of alkaline phosphatase” value (alkaline phosphatase) was “competitively inhibited”.

In the case of `COc1ccc2c(c1)[C@]13CCCC[C@@H]1[C@H](C2)N(C)CC3` [dextromethorphan], the “taste cell response to bitter tasting compound” value (mud puppy taste cells) was “increase in intracellular calcium concentration”.

With `NCCC(O)(P(=O)(O)O)P(=O)(O)O` [Pamidronic acid, pamidronic acid] the “effect … to denatonium benzoate” value (mud puppy taste cells) was “small reduction in response” and the “effect … to dextromethorphan” value (mud puppy taste cells) was “small reduction in response”.

In the case of `O=C(O)CP(=O)(O)O` [phosphonic acetic acid], the “effect … to denatonium benzoate” value (mud puppy taste cells) was “small reduction in response” and the “effect … to dextromethorphan” value (mud puppy taste cells) was “small reduction in response”.

In the case of `[Na+].[Na+].[Na+].[O]=[V]([O-])([O-])[O-]` [sodium orthovanadate], the “% Total Phosphatase Activity” value ([1]; Peptide Substrate 1) was 32%, the “% Total Phosphatase Activity” value ([1]; Peptide Substrate 2) was 46% and the “time until complete dephosphorylation of substrate 1” value ([1]; pig taste tissue 41 ug/ml protein, room temperature, final concentration 100 nmoles/ml) was 7 min. For the same compound, the “effect on tyrosine phosphatase activity against peptide substrates” value (from here on “effect on tyrosine phosphatase activity”) [2] was “inhibits the tyrosine phosphatase activity” and the “effect … to denatonium benzoate” value (mud puppy taste cells) was “inhibits the response”.

In the case of `CC[N+](CC)(CC(=O)Nc1c(C)cccc1C)Cc1ccccc1` [denatonium benzoate], the “taste cell response to bitter tasting compound” value (mud puppy taste cells) was “increase in intracellular calcium concentration”.

For `CN(C)CCC(c1ccc(Cl)cc1)c1ccccn1` (stereo not drawn) [chlorpheniramine maleate], the “taste cell response to bitter tasting compound” value (mud puppy taste cells) was “increase in intracellular calcium concentration”.

With `N[C@@H](Cc1ccc(OP(=O)(O)O)cc1)C(=O)O` [phosphotyrosine] the “time until complete dephosphorylation of substrate 1” value ([1]; pig taste tissue 41 ug/ml protein, room temperature, final concentration 10 nmoles/ml) was 7 min, the “effect on tyrosine phosphatase activity” value [2] was “inhibit the dephosphorylation” and the “effect on taste cell response to chlorpheniramine maleate” value (mud puppy taste cells; inhibitor mixed with chlorpheniramine maleate) was “decreases the response”. The “effect … to denatonium benzoate” value (mud puppy taste cells) was “decreases the response” and the “effect … to dextromethorphan” value (mud puppy taste cells) was “decreases the response”.

`F` [calcium fluoride] was tested, and the “% Total Phosphatase Activity” value ([1]; Peptide Substrate 1) was 109%, the “% Total Phosphatase Activity” value ([1]; Peptide Substrate 2) was 96% and the “time until all phosphates are removed from peptide substrate 1” value ([1]; pig taste tissue 41 ug/ml protein, room temperature, calcium fluoride added, concentration not given) was 2 min. The “effect on tyrosine phosphatase activity” value [2] was “does not affect tyrosine phosphatase activity”.

In the case of `N[C@@H](COP(=O)(O)O)C(=O)O` [Phosphoserine, reference compound], the “type of inhibition of alkaline phosphatase” value (alkaline phosphatase) was “competitively inhibited”.

For `Cc1ccc(C(C)C)c(OP(=O)(O)O)c1` [ThMP, thymylmonophosphate], the “type of inhibition of alkaline phosphatase” value (alkaline phosphatase) was “competitively inhibited” and the pKi ([3]; 22°C) was 2.44.

For `C=CCc1ccc(OP(=O)(O)O)c(OC)c1` [EMP, eugenylmonophosphate], the “effect on tyrosine phosphatase activity” value [2] was “inhibits the activity”, the “type of inhibition of alkaline phosphatase” value (alkaline phosphatase) was “competitively inhibited” and the pKi ([3]; 22°C) was 2.43. The pKi ([3]; 37°C) was 2.48.

In the case of `O=P(O)(O)CP(=O)(O)O` [Methylene diphosphonic acid], the “share of taste cells tested with small decrease in response to denatonium benzoate” value (mud puppy taste cells; denatonium benzoate) was 50% and the “effect … to denatonium benzoate” value (mud puppy taste cells) was “small decrease in response”.
